Assay results reported in patent US20050107289A1, “Anti-microbial peptides and compositions” (priority 2001, published 2005).
Non-standard residues stand in square brackets, D forms with d. Residues, ends and D or L forms follow the SMILES beside them.

Assays:
[1] = tested on: S. aureus (MRSA) ATCC 33591; format: cell-based, Staphylococcus aureus; conditions: for In Vitro MRSA MIC / S. aureus (MRSA) MIC / MRSA MIC: ATCC 33591; for MRSA (in vitro activity): Table 9, media a: anti-microbial media-3 (AM-3)
Outline: (§1)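 MIC read from NCCLS-style broth dilution. Peptide concentrations were set by quantitative HPLC or Trp UV absorbance at 280 nm, then serially halved from about 400 to 2 μg/ml in 5% DMSO/9% sucrose. Inoculum: approximately 2.5×10^5 cfu/ml.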

E. coli JM109(DE3) = format: cell-based, Escherichia coli; conditions: JM109
Outline: as §1

murine red blood cells = test: Red blood cell hemolysis; format: cell-based, mouse
Outline: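 Hemolysis read as A560 of supernatant, scaled between saline (0%) and 1% Triton X-100 (100%) controls; peptides were serially diluted onto 5% murine red cells in saline plus 10% FBS and incubated 30 min at 37° C.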

[2] = tested on: vancomycin-resistant Enterococus faecalis (VRE)(ATCC 51575); format: cell-based, Enterococcus faecalis; set-up: key to VRE (in vitro activity): peptide concentration in μg/ml (broth dilution assay); conditions: for In Vitro VREF MIC / VRE MIC: ATCC 51575; for VRE (in vitro activity): Table 9, media a: AM-3
Outline: as §1

[3] = tested on: S. aureus MRSA (ATCC 33591); test: Mouse peritonitis model, MRSA protection; format: in vivo, mice; set-up: PD50 MRSA: unit not given here; conditions: for PD50 MRSA: Table 12, male Balb-C mice, IP infection, IP peptide; for In Vivo MRSA PD50: Table 13; for protection of mice from MRSA infection: single bolus IP dose of appropriate amount, 45-60 min after infection; for mice survived: fourteen-day study
Experimental: Bacteria were prepared for in vivo using procedures similar to those as previously described. […] S. aureus MRSA bacteria (ATCC 33591) were grown at 37° C. in 5 mL of Antibiotic Medium-3 (AM-3, Difco Laboratories) with agitation for 12 hours to a stationary phase. Cells were collected by centrifugation, washed twice with saline solution and resuspended in about 10 mL of saline to an O.D.650 of 1.2. This suspension was diluted ten times in a sterilized 5% mucin (Difco) in saline to a concentration of 2-4×10^7 cfu/ml (actual inoculum size was verified by colony counts on agar plates).
Peptides of the invention were tested in mice to ascertain whether they would protect the mice against bacterial infection using procedures similar to those described in N. Frimodt-Moller et al., The Mouse Peritonitis/Sepsis Model, in Zak et al. (eds.) HANDBOOK OF ANIMAL MODELS OF INFECTION 127-37 (Academic Press 1999).
Male Balb-C mice (6 weeks old, approximately 20 g) were used in the study. Staphylococcus aureus MRSA bacteria (ATCC 33591) were grown at 37° C. with agitation for 12 hours to a stationary phase. Cells were collected by centrifugation, washed twice with saline and resuspended to an O.D.650 of 1.4. This suspension was diluted ten times with saline and resuspended to a concentration of 3-5×10^7 cfu/ml. For each peptide five groups of eight mice per group were infected I.P. with 0.5 ml of the above Staphylococcus aureus MRSA preparation (lethal dose). Forty-five minutes to an hour after infection, each group was treated with a different dose of peptide and a control group received vehicle only. Mice were monitored for fourteen days; death was defined as the end point. Median protecting doses (PD50) were calculated following the Reed and Muench method. […] For IV and SQ models peptide was administered immediately after IP infection.

Compound	In Vitro MRSA MIC [1]	S. aureus (MRSA) MIC [1]	E. coli MIC (E. coli JM109(DE3))	HD50 (murine red blood cells)	In Vitro RBC MIC (murine red blood cells)	reduction in hemolytic activity (murine red blood cells)	Hemolysis HD50 (murine red blood cells; red cells of murine)	In Vitro VREF MIC [2]	PD50 S. aureus MRSA infection [3]	PD50 MRSA [3]	In Vivo MRSA PD50 [3]	protection of mice from MRSA infection [3]	MRSA MIC [1]	MRSA (in vitro activity) [1]	RBC Hemolysis (HD50) (murine red blood cells)	VRE MIC [2]	VRE (in vitro activity) [2]	mice survived ([3]; 40 mg/kg bolus SQ)	mice survived ([3]; 2.5×5 mg/kg IV dosage regimen)	PD50 protective dose where 50% of animals survive ([3]; FIG. 6, mice challenged with lethal doses of MRSA)
CC(C)C[C@H]1NC(=O)[C@H](Cc2c[nH]c3ccccc23)NC(=O)[C@@H](CCCNC(=N)N)NC(=O)[C@H](CCC(N)=O)NC(=O)[C@@H](CCCCN)NC(=O)[C@H](Cc2c[nH]c3ccccc23)NC(=O)[C@@H](CC(C)C)NC(=O)[C@H](Cc2c[nH]c3ccccc23)NC1=O [SEQ ID NO:8, cyclo-(D-Lys-Gln-D-Arg-Trp-D-Leu-Trp-D-Leu-Trp)] (cyclo([dK]Q[dR]W[dL]W[dL]W))	12 µg/mL	6 µg/mL	80 µg/mL	10 µg/mL	40 µg/mL	five-fold	45 µg/mL	12 µg/mL	7 mg/kg	7	7 mg/kg	completely protect								
CC(C)C[C@H]1NC(=O)[C@H](Cc2c[nH]c3ccccc23)NC(=O)[C@@H](CCCCN)NC(=O)[C@H](CO)NC(=O)[C@@H](CCCCN)NC(=O)[C@H](Cc2c[nH]c3ccccc23)NC(=O)[C@@H](CC(C)C)NC(=O)[C@H](Cc2c[nH]c3ccccc23)NC1=O [SEQ ID NO:12, D-Lys-Ser-D-Lys-Trp-D-Leu-Trp-D-Leu-Trp] (cyclo([dK]S[dK]W[dL]W[dL]W))	5 µg/mL	5 µg/mL	40 µg/mL		100 µg/mL			15 µg/mL	20 mg/kg	20	20 mg/kg	completely protect	5 µg/mL	5	100	15 µg/mL	15			
CC(C)C[C@H]1NC(=O)[C@H](Cc2c[nH]c3ccccc23)NC(=O)[C@@H](CCCCN)NC(=O)[C@H](CCCNC(=N)N)NC(=O)[C@@H](CCCNC(=N)N)NC(=O)[C@H](Cc2c[nH]c3ccccc23)NC(=O)[C@@H](CC(C)C)NC(=O)[C@H](Cc2c[nH]c3ccccc23)NC1=O [SEQ ID NO:18, cyclo-(D-Arg-Arg-D-Lys-Trp-D-Leu-Trp-D-Leu-Trp)] (cyclo([dR]R[dK]W[dL]W[dL]W))	6 µg/mL	6 µg/mL	15 µg/mL		50 µg/mL			5 µg/mL	8 mg/kg	8	8 mg/kg	completely protect	5 µg/mL	5	50	5 µg/mL	5	75%	50%	5 ± 2 mg/kg
